Source: US20240091319A1, “DUAL-ADMINISTRATION METHODS FOR TREATING RESPIRATORY DISTRESS” (THE TRUSTEES OF THE STEVENS INSTITUTE OF TECHNOLOGY, priority 2021, published 2024)
Where no end group is shown, it is not given here. The star is where a group is joined. Biotin = O=C1N[C@H]2[C@H](CS[C@H]2CCCCC(=O)*)N1

How the values were obtained:
[1] = low concentrations, in the presence of albumin; reported in an earlier patent publication; cited from earlier work
[2] = system: alveolar-capillary barrier of heterogeneously flooded regions, isolated adult rat lung; assay: Ventilation 'injury score' in the isolated adult rat lung (Method 2); conditions: flooding solution in normal saline with 5% albumin; solutes at about the concentrations present in 1% SURVANTA; FIG. 2A
Text: Solutes are at about the same concentrations as present in 1% […]® solution. The surfactant protein B (SP-B) and SP-C used are isolated from pulmonary alveolar proteinosis patients; the SP-C, thus, is likely a mixture of fully-, partially- and non-palmitoylated peptide. Two forms of synthetic SP-C are used. One is sSP-Cff-leuc. […] Due to pre-dissolution of certain solutes, at high concentration, in non-aqueous solvents, the final dipalmitoylphosphatidylcholine (DPPC) solution contains 2% methanol; the final SP-B and SP-C solutions contain 1.6% chloroform and 0.8% methanol; and the final sSP-Cff-leuc solution contains 1.3% chloroform and 1.3% ethanol.
Base solution for all groups is normal saline.
Method 2. Ventilation ‘injury score’ in the isolated adult rat lung. An isolated adult rat lung is perfused with a physiologic solution (i.e. the solution is pumped through the lung vessels, including the capillaries) containing a low concentration of a fluorescent dye verified not to alter surface tension. A surface alveolus of the lung is micropunctured and a non-fluorescent test solution is injected. In experimental regions, a sufficiently large volume of liquid is injected to generate a pattern of heterogeneous alveolar flooding; in control regions, a sufficiently small volume of liquid is injected so that the liquid spontaneously clears from the region, leaving behind a micropunctured-but-aerated region. The region is imaged by confocal microscopy over a five minute baseline period at a constant transpulmonary pressure of 5 cm H2O. Five ventilation cycles are supplied to the lung at 0.33 Hz with the equivalent of a positive end-expiratory pressure of 15 cm H2O and with a tidal volume of 6 ml/kg body weight. The lung is then returned to a constant transpulmonary pressure of 5 cm H2O and imaged for 10 additional minutes. Alveolar liquid fluorescence at all time points is normalized by capillary fluorescence.
At baseline, alveolar liquid fluorescence (in flooded alveoli of experimental regions or in the liquid lining layer of control, aerated regions) is low and constant in all regions. Following ventilation, alveolar liquid fluorescence remains unchanged in aerated regions but continually increases with time in heterogeneously flooded regions. […] The increase above baseline in normalized alveolar liquid fluorescence at the last time point of the experiment is used as an injury score. The injury score, which indicates the rate of increase of normalized fluorescence following ventilation, correlates with the surface tension of the test solution.

[3] = system: immature fetal rat lung; assay: Opening pressure of the immature fetal rat lung after tracheal instillation (Method 3); conditions: 4-5 μl instilled in trachea, embryonic day 18 or 19; with 5% albumin; 1% SURVANTA, 0.0005% SP-C; FIG. 3
Protocol: Solution (4-5 μl), with solutes as specified, is instilled in the trachea of the fluid-filled immature (embryonic day 18 or 19) fetal rat lung. The pressure required to inflate the fetal rat lung for the first time is proportional to surface tension. […] The sSP-Cff-ion lock used is not biotinylated and is dissolved directly in normal saline without additional solvents. n=1 or 2/group.
Method 3. Opening pressure of the immature fetal rat lung. To inflate the initially liquid-filled fetal lung for the first time, the pressure applied at the trachea must be sufficient to overcome a capillary force that is proportional to the surface tension of the liquid in the lung. Thus, following instillation of a test solution in the trachea of the immature fetal rat lung, the opening pressure of the lung is indicative of the surface tension of the test solution. At embryonic day 18 or 19 (term=day 22), a fetus is delivered from a pregnant rat by uterotomy. […] The opening pressure that causes air to flow into the lungs is recorded, and is proportional to the solution surface tension.

[4] = system: alveolar-capillary barrier of heterogeneously flooded regions, isolated adult rat lung; conditions: injected into alveoli of isolated lungs in situ; SRB 1 nM-1,000 nM with albumin 3-12 w/v % in alveolar liquid; cited from earlier work
[5] = system: alveoli of isolated rat lungs; assay: Surface tension determination in the isolated adult rat lung (Method 1), solutions injected into alveoli in situ; conditions: for surface tension (T): alveolar administration
Protocol: Method 1. Surface tension determination in the isolated adult rat lung. In an isolated (excised) adult rat lung, the alveolar liquid is labeled with a fluorescent dye verified not to alter surface tension. T is determined as follows at a curved region of the alveolar air-liquid interface (e.g., the meniscus in a flooded alveolus or the corner of an aerated alveolus). Alveolar air pressure is determined with a transducer at the trachea of the constantly-inflated lung. Alveolar liquid phase pressure is determined by servo-nulling pressure measurement. The three-dimensional interfacial radius of curvature is determined by confocal microscopy. The surface tension is calculated according to the Laplace relation.
Alveoli of isolated rat lungs were injected (or flooded) in situ with various solutions or components and the effects on alveolar surface tension were compared. The accompanying FIG. 1 includes a composite bar chart comparing T values resulting from treatment with various solutions or components. Details, including the compositions and concentrations of any administered solutions or components, are shown below the x-axis of the chart. In more detail, the rat lungs were micropunctured, optionally flooded with red blood cell (RBC) homogenate alone, with albumin, or with albumin and SRB. […] Half of these samples receiving the second injection were additionally subjected to 50 ventilation cycles at the noted pressures. Additional experimental details are described in the Methods section of Nguyen, T L and Perlman, C E, “Sulforhodamine B and exogenous surfactant effects on alveolar surface tension under acute respiratory distress syndrome conditions,” J. Appl. Physiol. 2020, 129(6), 1505-1513, the entire content of which is incorporated herein by reference.
With reference to the accompanying FIG. 1 and its chart, the first data point (bar) corresponds to normal, aerated alveoli in normal lungs, as a control. The red blood cell homogenate was added to the remaining data points to simulate epithelial damage and hemorrhaging of the alveolar capillaries, as may be present in some cases of ARDS.

[6] = system: alveoli of isolated rat lungs; conditions: injected into alveoli of isolated lungs in situ; SRB 1 nM-1,000 nM with albumin 3-12 w/v % in alveolar liquid; cited from earlier work
[7] = system: lungs; conditions: administered to the lungs; U.S. Pat. Nos. 9,504,796 and 9,693,990; cited from earlier work
[8] = system: rats with model lung injury; assay: Therapeutic IV SRB administration in vivo in rats with model lung injury (injurious ventilation, then 4-hr support); conditions: rat, target plasma concentration 10 nM
Protocol: The therapeutic efficiencies of clinical method analogues, including tracheal instillation, intravascular (IV) administration, etc. of various surface tension-lowering components can be tested in an animal following generation of model lung injury in the animal. For example, therapeutic IV SRB administration was tested in vivo in rats with model lung injury, as follows. All animals were handled in accord with a protocol approved by the Stevens Institute of Technology Institutional Animal Care and Use Committee. First, the model lung injury was generated by ventilating an anesthetized rat with an excessive tidal (breath) volume (VT) of 42 ml/kg body weight and an end-expiratory pressure of zero for 15 min to physically injure the lungs. Then, modeling clinical treatment of a patient with lung injury, VT was reduced to a protective level of 6 ml/kg, end-expiratory pressure was increased to a positive, protective level of 2 or 10 cm H2O, and the rat continued to be supported by mechanical ventilation for 4 hrs. SRB was administered IV, targeting a plasma concentration of 10 nM, after the injury period and at the start of the support period, mimicking therapeutic administration after the development of respiratory distress but prior to supportive treatment by mechanical ventilation. Oxygenation was tracked during the 4-hr support period. At the end of the support period, the rat was sacrificed, the lungs were isolated, and alveolar T was determined in situ in the isolated lungs using Method 1, above. In lungs from rats sacrificed at the end of the 4-hr support period, T was determined in one aerated alveolus and one flooded alveolus.

[9] = system: adult rat lung; assay: Facilitation of dilute […] by negatively charged solutes in the adult rat lung; conditions: solute at 5 w/v %
Protocol: Method 1. […] Alveolar air pressure is determined with a transducer at the trachea of the constantly-inflated lung. Alveolar liquid phase pressure is determined by servo-nulling pressure measurement.

GIPFFPVHLKRLKLLLLLLLLILLLILGALLMGL (SEQ ID NO:2) (sSP-Cff-leuc)
surface tension in the lungs [1]: can lower surface tension in the lungs | injury score (thus surface tension) [2]: lower injury score

sSP-Cff-ion lock-B: variant of sSP-Cff-ion lock with a biotinylated N-terminal (Biotin-GIPFFPVHLKRLLIVVVVVELIVKVIVGALLMGL)
surface tension in the lungs [1]: can lower surface tension in the lungs | injury score (thus surface tension) [2]: lower injury score

GIPFFPVHLKRLLIVVVVVELIVKVIVGALLMGL (SEQ ID NO:3) (sSP-Cff-ion lock)
opening pressure (proportional to surface tension), compared with 100% SURVANTA without albumin [3]: at least as effective as 100% SURVANTA in the absence of albumin | surface tension in the lungs [1]: can lower surface tension in the lungs

CCN(CC)c1ccc2c(-c3ccc(S(=O)(=O)O)cc3S(=O)(=O)[O-])c3ccc(=[N+](CC)CC)cc-3oc2c1 [SRB, sulforhodamine B]
ventilation injury of flooded alveoli [4]: protect against ventilation injury of flooded alveoli | speed of T lowering compared with exogenous surfactant ([5]; RBC homogenate plus albumin, FIG. 1): acts faster than exogenous surfactant | surface tension (T) ([5]; T increased by cell debris): reduce T | surface tension (T) ([5]; T increased by secretory phospholipase A2 (sPLA2)): reduce T | alveolar surface tension (T) ([5]; alveoli flooded with RBC homogenate, albumin and SRB included, FIG. 1 bars 4, 7, 8): immediately decreased/normalized | surface tension [6]: lower surface tension | redistribution of edema liquid among alveoli [7]: promoting equitable redistribution of edema liquid among alveoli | surface tension [7]: capable of lowering surface tension | plasma markers of lung injury and inflammation [8]: reduce plasma markers of lung injury and inflammation | ventilation-induced lung injury (VILI) [8]: reduce VILI | alveolar surface tension (T), determined in isolated lungs after sacrifice ([8]; after injury period, end of 4-hr support period): reduce surface tension specifically in flooded/injured alveoli | oxygenation ([8]; tracked during 4-hr support period): improve oxygenation

fibrinogen
facilitation of the surface activity of 1 vol % SURVANTA [9]: also facilitate 1 vol % SURVANTA®

CCCCCCCCCCCCCCCC(=O)OC[C@H](COP(=O)([O-])OCC[N+](C)(C)C)OC(=O)CCCCCCCCCCCCCCC [DPPC, dipalmitoylphosphatidylcholine, reference compound]
injury score (thus surface tension) [2]: not those containing DPPC or SP-B

rhodamine WT
redistribution of edema liquid among alveoli [7]: promoting equitable redistribution of edema liquid among alveoli | surface tension [7]: capable of lowering surface tension

B1: SP-B: surfactant protein B isolated from pulmonary alveolar proteinosis patients (protein, UniProt P07988 201-279, looked up)
Pulmonary …: FPIPLPYCWLCRALIKRIQAMIPKGALAVAVAQVCRVVPLVAGGICQCLAERYSVILLDTLLGRMLPQLVCRLVLRCSM
modifications: Pulmonary surfactant-associated protein B
notes: surfactant protein B isolated from pulmonary alveolar proteinosis patients
injury score (thus surface tension) [2]: not those containing DPPC or SP-B
